In the NIST ThermoML archive (doi:10.1007/s10765-007-0223-x):

Experiments:
[1] = 101 kPa, Liquid; for speed of sound: Single path-length method
[2] = xn = mol fraction of the nth substance listed; conditions: 101 kPa, Liquid, x2 = 0; for speed of sound: Single path-length method

c1ccccc1 [benzene]
[1]
Conditions | mass density [kg/m3] | speed of sound [m/s]
288.15 K | 884.183 | 1345.5
290.65 K | 881.521 | 1333.4
293.15 K | 878.856 | 1321.6
295.65 K | 876.19 | 1309.9
298.15 K | 873.52 | 1298.3
300.65 K | 870.847 | 1286.7
303.15 K | 868.172 | 1275.1
305.65 K | 865.49 | 1263.6
308.15 K | 862.805 | 1252.1
310.65 K | 860.118 | 1240.7
313.15 K | 857.425 | 1229.3
315.65 K | 854.73 | 1217.9
318.15 K | 852.032 | 1206.7
320.65 K | 849.331 | 1195.5
323.15 K | 846.641 | 1184.6

c1ccccc1 [benzene] + COC(C)(C)C
[2]
Conditions | mass density [kg/m3] | speed of sound [m/s]
288.15 K | 884.183 | 1345.5
290.65 K | 881.521 | 1333.4
293.15 K | 878.856 | 1321.6
295.65 K | 876.19 | 1309.9
298.15 K | 873.52 | 1298.3
300.65 K | 870.847 | 1286.7
303.15 K | 868.172 | 1275.1
305.65 K | 865.49 | 1263.6
308.15 K | 862.805 | 1252.1
310.65 K | 860.118 | 1240.7
313.15 K | 857.425 | 1229.3
315.65 K | 854.73 | 1217.9
318.15 K | 852.032 | 1206.7
320.65 K | 849.331 | 1195.5
323.15 K | 846.641 | 1184.6

CCc1ccccc1 [ethylbenzene]
[1]
Conditions | mass density [kg/m3] | speed of sound [m/s]
288.15 K | 871.245 | 1360.7
290.65 K | 869.052 | 1349.9
293.15 K | 866.856 | 1339.4
295.65 K | 864.66 | 1328.9
298.15 K | 862.459 | 1318.4
300.65 K | 860.256 | 1307.9
303.15 K | 858.047 | 1297.5
305.65 K | 855.837 | 1287.1
308.15 K | 853.622 | 1276.8
310.65 K | 851.407 | 1266.5
313.15 K | 849.186 | 1256.3
315.65 K | 846.964 | 1246.1
318.15 K | 844.741 | 1236.1
320.65 K | 842.518 | 1226.1
323.15 K | 840.306 | 1216.3

Cc1ccccc1 [toluene]
[1]
Conditions | mass density [kg/m3] | speed of sound [m/s]
288.15 K | 871.457 | 1347.5
290.65 K | 869.144 | 1336.3
293.15 K | 866.823 | 1325.3
295.65 K | 864.5 | 1314.3
298.15 K | 862.173 | 1303.4
300.65 K | 859.845 | 1292.6
303.15 K | 857.513 | 1281.9
305.65 K | 855.175 | 1271.2
308.15 K | 852.838 | 1260.5
310.65 K | 850.494 | 1249.8
313.15 K | 848.146 | 1239.2
315.65 K | 845.794 | 1228.6
318.15 K | 843.437 | 1218
320.65 K | 841.075 | 1207.3
323.15 K | 838.706 | 1196.6

Cc1ccccc1 [toluene] + COC(C)(C)C
[2]
Conditions | mass density [kg/m3] | speed of sound [m/s]
288.15 K | 871.457 | 1347.5
290.65 K | 869.144 | 1336.3
293.15 K | 866.823 | 1325.3
295.65 K | 864.5 | 1314.3
298.15 K | 862.173 | 1303.4
300.65 K | 859.845 | 1292.6
303.15 K | 857.513 | 1281.9
305.65 K | 855.175 | 1271.2
308.15 K | 852.838 | 1260.5
310.65 K | 850.494 | 1249.8
313.15 K | 848.146 | 1239.2
315.65 K | 845.794 | 1228.6
318.15 K | 843.437 | 1218
320.65 K | 841.075 | 1207.3
323.15 K | 838.706 | 1196.6
